Measurements: patent US10293004B2, “Butyrate-producing bacterium and use thereof” (KABUSHIKI KAISHA YAKULT HONSHA, priority 2014, dated 2019)

Assays:
[1] = Turbidity (OD660) after anaerobic culture of bacterial strains in PYGA, PYSA or PYXA medium
Description: (§1) A frozen stock solution of each bacterial strain (a 10% (w/v) skim milk-2% sodium glutamate solution in which bacterial cells were suspended) (cell count: 2.0 to 5.5×10^10 cells/mL) was thawed, and the solution was inoculated at 1% to 4 mL of a PY liquid medium supplemented with 33 mM sodium acetate and 0.5 (w/v) % glucose (PYGA medium), followed by anaerobic culture at 37° C. for 24 hours. After the culture, the culture solution was inoculated at 1% to a fresh PYGA medium, followed by anaerobic culture at 37° C. for 24 hours. After the culture, the turbidity (OD660) of the culture solution was measured. Then, the culture solution was inoculated at 1% to a PY medium containing 0.5 (w/v) % L-sorbose or D-xylitol and 33 mM sodium acetate (the medium containing L-sorbose: PYSA, and the medium containing D-xylitol: PYXA), followed by anaerobic culture at 37° C. for 24 hours. Then, the turbidity (OD660) was measured.

[2] = Production of butyrate by each bacterial strain from L-sorbose and D-xylitol (ion-exclusion HPLC); conditions: 24 hours, minus PYA blank
Description: as §1
After the completion of the culture, the organic acid concentration in the culture solution was quantified by ion-exclusion HPLC. In this operation, a culture solution in a PY medium supplemented with sodium acetate but without L-sorbose or D-xylitol (PYA medium) was used as a blank.
(HPLC Analysis Conditions) • Eluent: 15 mM perchloric acid-7% acetonitrile • pH adjuster: 15 mM perchloric acid-60 mM • tris(hydroxymethyl)aminomethane-7% acetonitrile • Separation column: Organic acid analysis column RSpak KC- • 811×2 (manufactured by Showa Denko K.K.) • Column temperature: 42° C. • Injected sample volume: 10 μL • Flow rate: 1.0 mL/min • Analysis time: 35 min • Detector: Waters 432 electric conductivity detector • Cell temperature: 45° C.
The amount of butyrate produced was calculated according to (Expression 1). Amount of butyrate produced=(Amount of butyrate produced by culture for 24 hours in a PYSA or PYXA medium)−(Amount of butyrate produced by culture for 24 hours in a PYA medium) (Expression 1)

[3] = Amount of butyrate produced by culture in PYA medium supplemented with acetate and lactate; conditions: PYA medium (33 mM sodium acetate) with 40 mM sodium lactate, 37° C. 24 hours, minus PYA without lactate
Description: Each bacterial solution cultured in a PYGA liquid medium under the same conditions as those described in the preceding paragraph 1) was inoculated at 1% to a PYA medium containing 33 mM sodium acetate and further supplemented with 40 mM sodium lactate, followed by anaerobic culture at 37° C. for 24 hours. After the completion of the culture, the organic acid concentration in the culture solution was analyzed by ion-exclusion HPLC. The analysis conditions were the same as those described in the preceding paragraph 1). The amount of butyrate produced was calculated according to (Expression 2). Amount of butyrate produced=(Amount of butyrate produced by culture for 24 hours in a PYA medium supplemented with 40 mM sodium lactate)−(Amount of butyrate produced by culture for 24 hours in a PYA medium without 40 mM sodium lactate) (Expression 2)

[4] = Biochemical properties: enzymatic activity (API-ZYM, Rapid ID32A API, API KENKI 20A); set-up: key: +: positive reaction; −: negative reaction; +^w: weak reaction
Excerpt: (§2) Commercially available API-ZYM, Rapid ID32A API, and API KENKI 20A (SYSMEX bioMerieux Co., Ltd.) were used in the testing of biochemical properties of various bacterial strains. The testing method followed the product manuals.

[5] = Biochemical properties: saccharide fermentability (API-ZYM, Rapid ID32A API, API KENKI 20A); set-up: key: +: positive reaction; −: negative reaction; +^w: weak reaction
Excerpt: as §2

[6] = Evaluation of ability to produce butyrate from indigestible saccharides (Example 3)
Excerpt: Galactooligosaccharide (GOS), maltitol, D-mannitol, lactitol, isomalt, isomaltulose, L-sorbose and D-sorbitol were used as indigestible saccharides. These indigestible saccharides used, except for GOS, were reagent grade. GOS used was commercially available Oligomate 55N (Yakult Pharmaceutical Industry Co., Ltd.) from which monosaccharide and lactose fractions (fractions digestible and absorbable by the upper gastrointestinal tract) had been removed using an activated carbon column. Specifically, a saccharide solution diluted with purified water was added to a column packed with activated carbon (manufactured by Wako Pure Chemical Industries, Ltd.) swollen in purified water, and the column was washed with a 2% ethanol solution, followed by the elution of an indigestible fraction with a 50% ethanol solution. The eluate was dried under reduced pressure, and the obtained GOS saccharide solution was used.
A. hadrus YIT 10092^T (DSM 3119^T), which is a type strain of A. hadrus (a typical human intestinal butyrate-producing bacterium), and two isolates were used.
Each of these bacterial strains was anaerobically cultured at 37° C. for 24 hours in a PYA medium containing 33 mM sodium acetate supplemented with 0.5% D-glucose (PYGA medium). The culture solution was inoculated at 1% to a PYA medium containing 0.5 (w/v) % of each indigestible saccharide (test medium), followed by anaerobic culture at 37° C. for 24 hours. After the completion of the culture, the organic acid concentration in the culture solution was analyzed by ion-exclusion HPLC. The analysis conditions were the same as those described above in Example 2. After the quantification of the organic acid concentration, the amount of butyrate produced from each indigestible saccharide and the ratio of butyrate to total short-chain fatty acids were calculated according to the following expressions. (Amount of butyrate produced)=(Amount of butyrate in the test medium after culture)−(Amount of butyrate in a PYA medium without each indigestible saccharide after culture) (Ratio of butyrate)=(Amount of butyrate in the test medium after culture)/((Amount of acetate+Amount of propionate+Amount of butyrate) in the test medium after culture)×100 (Expression 3)

## A. hadrus (Eubacterium hadrum) YIT 12354 (NITE BP-01831)
[1]; after anaerobic culture at 37° C. for 24 hours in PYGA liquid medium
  Turbidity (OD660): 2.76
[1]; anaerobic culture at 37° C. for 24 hours of 1% inoculum in PYSA (L-sorbose)
  Turbidity (OD660): 2.26
[1]; anaerobic culture at 37° C. for 24 hours of 1% inoculum in PYXA (D-xylitol)
  Turbidity (OD660): 1.09
[2]; D-Xylitol 0.5 (w/v) %, PYXA medium
  Amount of butyrate produced: 31.0 mmol/L
[2]; L-Sorbose 0.5 (w/v) %, PYSA medium
  Amount of butyrate produced: 14.8 mmol/L
[3]
  Amount of butyrate produced: 16.5 mmol/L
[4]
  Acid phosphatase: +
  Alkaline phosphatase: +
  Esterase (C4): −
  Naphthol-AS-B1-phosphohydrolase: +
  α-Glucosidase: −
  β-Galactosidase: +
  β-Galactosidase-6-phosphate: −
[5]
  Aesculin: −
  D-Cellobiose: −
  D-Mannitol: +
  D-Raffinose: +^w
  D-Xylose: +
  Glycerol: −
  L-Arabinose: +
  L-Rhamnose: −
  L-Sorbitol: +
  Mallose: +^w
  Salicin: −
[6]; PYA medium with 0.5 (w/v) % of each indigestible saccharide, versus type strain, FIGS. 3 and 4
  ability to utilize indigestible saccharides: more than the type strain YIT 10092^T
[6]; from indigestible saccharides, versus type strain, FIG. 3
  Amount of butyrate produced: larger
[6]; versus type strain YIT 10092^T, FIG. 4
  ratio of butyrate to total short-chain fatty acids: higher than that of the type strain YIT 10092^T
